Reference: the NIST ThermoML archive (doi:10.1021/je049762q)

Test: molar heat capacity at constant pressure
Details: 101.33 kPa

Clc1cc(Cl)cc(Cl)c1 [1,3,5-trichlorobenzene]
molar heat capacity at constant pressure [J/K/mol]
Details | Crystal | Liquid
271.48 K | 148.45 | –
273.41 K | 149.19 | –
275.71 K | 150.21 | –
276.13 K | 150.38 | –
277.82 K | 150.9 | –
278.84 K | 151.41 | –
279.93 K | 151.88 | –
280 K | 151.91 | –
281.54 K | 152.27 | –
282.02 K | 152.47 | –
284.11 K | 153.34 | –
286.19 K | 153.9 | –
288.26 K | 154.74 | –
290 K | 155.34 | –
290.32 K | 155.45 | –
292.38 K | 156.18 | –
294.42 K | 157 | –
295.88 K | 157.42 | –
296.46 K | 157.62 | –
298.15 K | 158.32 | –
298.44 K | 158.35 | –
300 K | 159.02 | –
300.52 K | 159.26 | –
300.98 K | 159.48 | –
303.51 K | 160.28 | –
306.03 K | 161.24 | –
306.98 K | 161.57 | –
308.54 K | 162.23 | –
310 K | 162.81 | –
310.04 K | 162.82 | –
311.04 K | 163.32 | –
311.61 K | 163.35 | –
313.11 K | 164.04 | –
313.53 K | 164.32 | –
314.66 K | 164.78 | –
316 K | 165.48 | –
317.72 K | 166.19 | –
318.47 K | 166.69 | –
320 K | 167.31 | –
320.77 K | 167.5 | –
320.93 K | 167.74 | –
323.38 K | 168.94 | –
323.83 K | 169.15 | –
325.82 K | 170.31 | –
326.88 K | 171.2 | –
328.25 K | 171.54 | –
330 K | 172.45 | –
335.92 K | 175.78 | 197.88
338.89 K | – | 198.6
340 K | – | 198.76
341.83 K | – | 199.12
341.91 K | – | 199.27
344.76 K | – | 199.68
344.94 K | – | 199.89
347.69 K | – | 200.32
347.97 K | – | 200.6
350 K | – | 200.94
350.61 K | – | 200.99
350.99 K | – | 201.16
353.52 K | – | 201.63
354 K | – | 201.88
356.43 K | – | 202.27
357.01 K | – | 202.62
359.34 K | – | 202.96
360 K | – | 203.18
360.01 K | – | 203.24
362.24 K | – | 203.68
363.01 K | – | 203.85
365.13 K | – | 204.35
366 K | – | 204.62
368.02 K | – | 204.99
368.98 K | – | 205.5
370 K | – | 205.46
370.9 K | – | 205.72
371.95 K | – | 206
373.78 K | – | 206.29
374.93 K | – | 206.68
376.65 K | – | 206.96
377.9 K | – | 207.35
379.51 K | – | 207.51
380 K | – | 207.79
380.86 K | – | 207.96
